Test [1] addresses T1, NUBP1 Cytosolic Fe—S cluster assembly factor NUBP1 (Homo sapiens, UniProt P53384).
T1 construct: Cells were resuspended in cold PBS on ice and sonicated with a probe sonicator to achieve lysis; endogenous in cells
T1 sequence (P53384 1-320): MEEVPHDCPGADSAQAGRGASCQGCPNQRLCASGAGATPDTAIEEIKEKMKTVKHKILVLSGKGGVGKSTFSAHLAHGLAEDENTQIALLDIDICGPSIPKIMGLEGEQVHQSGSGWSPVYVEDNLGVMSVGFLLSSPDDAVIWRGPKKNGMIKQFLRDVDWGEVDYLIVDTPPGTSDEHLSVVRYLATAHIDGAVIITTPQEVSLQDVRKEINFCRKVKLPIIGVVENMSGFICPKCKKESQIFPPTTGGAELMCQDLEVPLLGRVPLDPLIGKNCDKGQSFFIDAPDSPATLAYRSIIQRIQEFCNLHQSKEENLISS
Description: Cysteine liganding, probe competition. It counts as binding. To be noted: for Liganded: NUBP1 Res# 31, uniprot P53384. An outline of the steps: (§1)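 Steps: sonicate cells in cold PBS; treat 5 mg/ml lysate with compound (25° C, 1 hr); add desthiobiotin iodoacetamide probe from a 10 mM stock (25° C, 1 hr); precipitate, reduce, alkylate, digest with trypsin; capture labelled peptides on streptavidin for analysis.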

Test [2] deals with T2, DDX60 Probable ATP-dependent RNA helicase DDX60 (Homo sapiens, UniProt Q8IY21).
T2 construct: 200 μL of lysate containing 5 mg/ml proteome was treated with 2 μL of 100× compound stock; endogenous in cells
T2 sequence (Q8IY21 whole entry): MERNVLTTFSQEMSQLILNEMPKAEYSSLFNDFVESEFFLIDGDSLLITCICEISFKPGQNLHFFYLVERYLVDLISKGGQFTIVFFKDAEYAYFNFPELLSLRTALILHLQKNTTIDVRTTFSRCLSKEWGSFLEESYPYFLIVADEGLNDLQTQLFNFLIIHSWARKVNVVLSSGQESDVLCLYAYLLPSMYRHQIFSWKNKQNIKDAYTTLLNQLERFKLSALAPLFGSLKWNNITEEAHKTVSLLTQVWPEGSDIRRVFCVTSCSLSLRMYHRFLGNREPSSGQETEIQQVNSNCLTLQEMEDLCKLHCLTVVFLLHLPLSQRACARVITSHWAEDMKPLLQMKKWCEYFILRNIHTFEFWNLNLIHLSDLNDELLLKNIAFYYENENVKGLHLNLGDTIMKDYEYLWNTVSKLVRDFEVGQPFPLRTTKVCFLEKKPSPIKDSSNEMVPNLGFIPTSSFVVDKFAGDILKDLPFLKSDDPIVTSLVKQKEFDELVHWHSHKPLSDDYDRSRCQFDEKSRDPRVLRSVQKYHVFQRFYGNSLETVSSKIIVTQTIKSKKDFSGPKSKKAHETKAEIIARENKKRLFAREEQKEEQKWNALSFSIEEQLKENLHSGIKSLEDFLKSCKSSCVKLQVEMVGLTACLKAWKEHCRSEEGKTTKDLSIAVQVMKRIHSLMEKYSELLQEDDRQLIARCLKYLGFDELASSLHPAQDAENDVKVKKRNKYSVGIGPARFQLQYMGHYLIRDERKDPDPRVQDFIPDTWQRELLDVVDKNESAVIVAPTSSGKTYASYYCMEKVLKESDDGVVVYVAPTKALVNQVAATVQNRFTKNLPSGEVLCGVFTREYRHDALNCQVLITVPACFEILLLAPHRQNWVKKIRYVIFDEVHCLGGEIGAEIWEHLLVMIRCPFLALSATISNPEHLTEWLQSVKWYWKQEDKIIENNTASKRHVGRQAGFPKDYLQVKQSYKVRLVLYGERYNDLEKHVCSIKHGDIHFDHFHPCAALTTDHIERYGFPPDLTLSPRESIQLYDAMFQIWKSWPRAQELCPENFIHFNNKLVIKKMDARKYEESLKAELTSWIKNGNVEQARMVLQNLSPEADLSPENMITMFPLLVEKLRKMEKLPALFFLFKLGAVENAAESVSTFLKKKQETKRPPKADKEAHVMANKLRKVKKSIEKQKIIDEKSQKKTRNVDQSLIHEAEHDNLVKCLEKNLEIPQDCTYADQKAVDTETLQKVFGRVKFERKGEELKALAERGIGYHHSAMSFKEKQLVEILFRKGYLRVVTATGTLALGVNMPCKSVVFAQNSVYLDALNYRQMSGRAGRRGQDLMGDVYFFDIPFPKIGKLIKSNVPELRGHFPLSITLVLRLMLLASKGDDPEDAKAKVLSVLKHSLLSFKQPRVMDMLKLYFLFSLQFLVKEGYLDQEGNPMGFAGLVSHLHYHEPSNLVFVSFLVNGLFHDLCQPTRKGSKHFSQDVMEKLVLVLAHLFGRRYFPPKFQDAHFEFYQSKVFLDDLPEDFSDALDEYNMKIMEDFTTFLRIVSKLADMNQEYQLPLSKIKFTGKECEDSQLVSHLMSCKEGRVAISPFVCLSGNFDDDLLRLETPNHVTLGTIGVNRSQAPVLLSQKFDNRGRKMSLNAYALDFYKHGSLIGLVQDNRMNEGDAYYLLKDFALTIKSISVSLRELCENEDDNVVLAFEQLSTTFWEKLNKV
Description: Cysteine liganding, probe competition. The test is classed as binding. An outline of the steps:
as §1

Take `COc1ccc2c(c1)CCCN2C(=O)CCl` [KB02]: the Liganded result in test [1] is “YES”; in test [2] (DDX60 Res# 1051, uniprot Q8IY21), “YES”.
Take `O=C(CCl)Nc1cc(C(F)(F)F)cc(C(F)(F)F)c1` [KBO3]: the Liganded entry in test [1] was “YES”. Moreover, in test [1] (uniprot P53384), the 100 ave is listed as 7.3775, the “500 Max” value worked out at 75.8 and the 500 ave is listed as 55.66. The “100 Max” value in test [1] (uniprot P53384, in % (unit assumed)) came to 28.64. Also, in test [2] (uniprot Q8IY21), the “100 Max” value stood at 29.56, the 100 ave came to 19.7, the “500 Max” value is recorded as 73.07 and the 500 ave was found to be 73.07.
